Measurements reported in patent US11485740B2, “Inhibitors of TRPC6” (Boehringer Ingelheim International GmbH, priority 2018, dated 2022).

Biological target: T1, human TRPC6 (Homo sapiens, UniProt Q9Y210)
T1 construct: expressed in transfected cells
T1 sequence (Q9Y210 1-931): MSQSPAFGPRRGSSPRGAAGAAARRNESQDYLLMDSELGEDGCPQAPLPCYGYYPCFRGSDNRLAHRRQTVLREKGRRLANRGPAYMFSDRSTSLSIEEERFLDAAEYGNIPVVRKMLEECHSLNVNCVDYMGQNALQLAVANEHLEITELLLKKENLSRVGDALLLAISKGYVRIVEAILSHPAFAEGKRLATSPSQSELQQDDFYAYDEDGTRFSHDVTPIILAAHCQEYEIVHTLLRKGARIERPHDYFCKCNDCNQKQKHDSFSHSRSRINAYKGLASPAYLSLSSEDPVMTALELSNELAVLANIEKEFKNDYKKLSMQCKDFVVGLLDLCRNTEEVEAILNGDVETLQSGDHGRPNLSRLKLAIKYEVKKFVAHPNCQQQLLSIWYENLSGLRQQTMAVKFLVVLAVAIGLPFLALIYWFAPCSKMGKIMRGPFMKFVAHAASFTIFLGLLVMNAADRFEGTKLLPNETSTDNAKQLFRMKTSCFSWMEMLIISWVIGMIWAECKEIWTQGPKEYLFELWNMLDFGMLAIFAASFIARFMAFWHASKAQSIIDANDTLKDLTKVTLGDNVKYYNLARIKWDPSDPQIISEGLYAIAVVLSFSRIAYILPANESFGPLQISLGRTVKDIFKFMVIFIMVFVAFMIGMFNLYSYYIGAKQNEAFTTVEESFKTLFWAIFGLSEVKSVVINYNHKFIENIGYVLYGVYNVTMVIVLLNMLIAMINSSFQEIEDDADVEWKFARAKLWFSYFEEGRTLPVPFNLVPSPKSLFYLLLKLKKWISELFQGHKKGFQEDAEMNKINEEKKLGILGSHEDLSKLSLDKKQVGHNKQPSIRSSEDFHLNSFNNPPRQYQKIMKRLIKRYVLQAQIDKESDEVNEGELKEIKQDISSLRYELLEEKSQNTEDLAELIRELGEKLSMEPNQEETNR
Experiment: High throughput screening assay: Fluo4/AM calcium fluorescence in HEK293/TREx cells expressing human TRPC6, agonist GSK1702934A (single concentration 10 μM and IC50 curves)
Format: cell-based
Settings: antagonist effect against human TRPC6, 7 concentrations 20 μM to 0.027 μM, triplicate
Summary of the method: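 HEK293/TREx cells stably carrying tetracycline-induced (1 μg/ml) human TRPC6, loaded with Fluo4/AM (0.5 μM, 60 min, RT), pretreated 2 min with compound (10 μM final in screen), then stimulated with GSK1702934A in high-Ca2+ Ringer's (20 mM Ca2+ final). Fluorescence ratio over ~3 min normalized to no-compound and control-blocker wells; IC50 from triplicate curves.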

How did the IC50 turn out when COc1cc(C(=O)N2CCN(c3cnc(N)cc3OC)CC2)ncc1-c1ccc(F)cc1 [Compound 104, [4-(6-Amino-4-methoxy-pyridin-3-yl)-piperazin-1-yl]-[5-(4-fluoro-phenyl)-4-methoxy-pyridin-2-yl]-methanone] was run?
The IC50 was 0.027 µM.

For COc1cc(C(=O)N2CCC(c3ccc(N)nn3)CC2)ncc1-c1cccc(OCC2CC2)c1 [Compound 21, [4-(6-Amino-pyridazin-3-yl)-piperidin-1-yl]-[5-(3-cyclopropylmethoxy-phenyl)-4-methoxy-pyridin-2-yl]-methanone], which IC50 is on record?
The IC50 was 0.16 µM.

Which IC50 does the source give for COc1cc(C(=O)N2CCC(c3ccc(N)nn3)CC2)ncc1-c1ccc(C)c(C#N)c1 [Compound 51, 5-{6-[4-(6-Amino-pyridazin-3-yl)-piperidine-1-carbonyl]-4-methoxy-pyridin-3-yl}-2-methyl-benzonitrile] here?
Its IC50 is 0.9 µM.

Nc1ccc(C2CCN(C(=O)c3ccc(-c4ccc(F)cc4)cc3)CC2)nn1 [Compound 7, [4-(6-Amino-pyridazin-3-yl)-piperidin-1-yl]-(4′-fluoro-biphenyl-4-yl)-methanone] was tested. Which IC50 did it give?
The IC50 was 3.4 µM.

Which IC50 does the source give for COc1cc(C(=O)N2CCC(c3ccc(N)nn3)CC2)ncc1-c1ccc(OC2CCCC2)cc1 [Compound 23, [4-(6-Amino-pyridazin-3-yl)-piperidin-1-yl]-[5-(4-cyclopentyloxy-phenyl)-4-methoxy-pyridin-2-yl]-methanone] here?
Its IC50 is 0.069 µM.

With COc1cc(C(=O)N2CCN(c3cnc(N)cc3C)C[C@@H]2CO)ncc1-c1ccccc1 [Compound 94, [(R)-4-(6-Amino-4-methyl-pyridin-3-yl)-2-hydroxymethyl-piperazin-1-yl]-(4-methoxy-5-phenyl-pyridin-2-yl)-methanone] as the compound, how does the IC50 read?
Its IC50 is 0.027 µM.

With COc1ccc(-c2cnc(C(=O)N3CCC(c4ccc(N)nn4)CC3)cc2OC)cc1 [Compound 28, [4-(6-Amino-pyridazin-3-yl)-piperidin-1-yl]-[4-methoxy-5-(4-methoxy-phenyl)-pyridin-2-yl]-methanone] as the compound, how does the IC50 read?
The IC50 was 0.19 µM.

How did the IC50 turn out when COc1cc(C(=O)N2CCC(c3ccc(N)nn3)CC2)ncc1-c1ccc(C2CC2)nc1 [Compound 43, [4-(6-Amino-pyridazin-3-yl)-piperidin-1-yl]-(6′-cyclopropyl-4-methoxy-[3,3′]bipyridinyl-6-yl)-methanone] was run?
The IC50 was 0.39 µM.

Which IC50 does the source give for COc1cc(C(=O)N2CCC(c3ccc(N)nn3)CC2)ncc1-c1ccc(OCC2CC2)nc1 [Compound 50, [4-(6-Amino-pyridazin-3-yl)-piperidin-1-yl]-(6′-cyclopropylmethoxy-4-methoxy-[3,3′]bipyridinyl-6-yl)-methanone] here?
Its IC50 is 0.19 µM.

How did the IC50 turn out when COc1cc(C(=O)N2CCC(c3ccc(N)nc3)CC2)ncc1-c1ccccc1 [Compound 71, 5-[1-(4-Methoxy-5-phenylpyridine-2-carbonyl)piperidin-4-yl]pyridin-2-amine] was run?
The IC50 was 0.027 µM.

With COc1cc(C(=O)N2CCC(c3ccc(N)nn3)CC2)ccc1-c1ccc(OCC2CC2(C)C)nc1 (stereo not shown) [Compound 77, [4-(6-Amino-pyridazin-3-yl)-piperidin-1-yl]-{4-[6-(2,2-dimethyl-cyclopropylmethoxy)-pyridin-3-yl]-3-methoxy-phenyl}-methanone] as the compound, how does the IC50 read?
Its IC50 is 0.16 µM.

Cc1ccc(-c2ccc(C(=O)N3CCC(c4ccc(N)nn4)CC3)cc2)cc1 [Compound 3, [4-(6-Amino-pyridazin-3-yl)-piperidin-1-yl]-(4′-methyl-biphenyl-4-yl)-methanone] was tested. Which IC50 did it give?
Its IC50 is 1.7 µM.

COc1cc(C(=O)N2CCC(c3ccc(N)nn3)CC2)ccc1-c1ccc(OCC2CC2)nc1 [Compound 82, [4-(6-Amino-pyridazin-3-yl)-piperidin-1-yl]-[4-(6-cyclopropylmethoxy-pyridin-3-yl)-3-methoxy-phenyl]-methanone] was tested. Which IC50 did it give?
The IC50 was 0.34 µM.

For COc1cc(C(=O)N2CCC(c3ccc(N)nn3)CC2)ncc1-c1cccc(F)c1 [Compound 35, 6-{1-[5-(3-Fluorophenyl)-4-methoxypyridine-2-carbonyl]piperidin-4-yl}pyridazin-3-amine], which IC50 is on record?
Its IC50 is 0.22 µM.

COc1cc(C(=O)N2CCC(c3cnc(N)cc3OC)CC2)ncc1-c1ccc(C(F)(F)F)cc1 [Compound 84, (6-Amino-4-methoxy-3′,4′,5′,6′-tetrahydro-2′H-[3,4′]bipyridinyl-1′-yl)-[4-methoxy-5-(4-trifluoromethyl-phenyl)-pyridin-2-yl]-methanone] was tested. Which IC50 did it give?
The IC50 was 0.13 µM.

How did the IC50 turn out when COc1cc(C(=O)N2CCN(c3ccc(N)nc3)CC2)ncc1-c1ccc(C(F)(F)F)nc1 [Compound 67, [4-(6-Amino-pyridin-3-yl)-piperazin-1-yl]-(4-methoxy-6′-trifluoromethyl-[3,3′]bipyridinyl-6-yl)-methanone] was run?
Its IC50 is 0.21 µM.

Which IC50 does the source give for COc1cc(C(=O)N2CCC(c3ccc(N)nn3)CC2)ncc1-c1ccc(OCC2CC2)c(Cl)c1 [Compound 18] here?
Its IC50 is 2.7 µM.

COc1cc(-c2ccc(C(F)(F)F)cc2)ccc1C(=O)N1CCC(c2ccc(N)nn2)CC1 [Compound 66, [4-(6-Amino-pyridazin-3-yl)-piperidin-1-yl]-(3-methoxy-4′-trifluoromethyl-biphenyl-4-yl)-methanone] was tested. Which IC50 did it give?
The IC50 was 0.52 µM.

With COc1cc(C(=O)N2CCC(c3ccc(N)nn3)CC2)ncc1-c1cccc(OCC(C)C)c1 [Compound 52, [4-(6-Amino-pyridazin-3-yl)-piperidin-1-yl]-[5-(3-isobutoxy-phenyl)-4-methoxy-pyridin-2-yl]-methanone] as the compound, how does the IC50 read?
The IC50 was 0.24 µM.

With COc1ccc(-c2cnc(C(=O)N3CCC(c4ccc(N)nn4)CC3)cc2OC)cn1 [Compound 46, [4-(6-Amino-pyridazin-3-yl)-piperidin-1-yl]-(4,6′-dimethoxy-[3,3′]bipyridinyl-6-yl)-methanone] as the compound, how does the IC50 read?
Its IC50 is 4 µM.

Which IC50 does the source give for COc1cc(C(=O)N2C[C@@H]3C[C@H]2CN3c2ccc(N)nn2)ccc1-c1ccc(C(F)(F)F)cc1 [Compound 115, [(1S,4S)-5-(6-Amino-pyridazin-3-yl)-2,5-diaza-bicyclo[2.2.1]hept-2-yl]-(2-methoxy-4′-trifluoromethyl-biphenyl-4-yl)-methanone] here?
Its IC50 is 0.25 µM.

For COc1cc(C(=O)N2CCC(c3ccc(N)nc3)CC2)ncc1-c1ccc(C(F)(F)F)nc1 [Compound 97, (6-Amino-3′,4′,5′,6′-tetrahydro-2′H-[3,4′]bipyridinyl-1′-yl)-(4-methoxy-6′-trifluoromethyl-[3,3′]bipyridinyl-6-yl)-methanone], which IC50 is on record?
Its IC50 is 0.069 µM.

With CC[C@H](C)Oc1ccc(-c2ccc(C(=O)N3CCC(c4ccc(N)nn4)CC3)cc2OC)cn1 [Compound 75, [4-(6-Amino-pyridazin-3-yl)-piperidin-1-yl]-{4-[6-((S)-sec-butoxy)-pyridin-3-yl]-3-methoxy-phenyl}-methanone] as the compound, how does the IC50 read?
Its IC50 is 0.091 µM.

COc1cc(C(=O)N2CCC(c3ccc(N)nn3)CC2)ncc1-c1ccc(C(F)(F)F)nc1 [Compound 42] was tested. Which IC50 did it give?
The IC50 was 0.7 µM.

Which IC50 does the source give for COc1cc(C(=O)N2CCC(c3ccc(N)nn3)CC2)ncc1-c1ccc(OC(F)F)cc1 [Compound 39, [4-(6-Amino-pyridazin-3-yl)-piperidin-1-yl]-[5-(4-difluoromethoxy-phenyl)-4-methoxy-pyridin-2-yl]-methanone] here?
Its IC50 is 0.32 µM.

With COc1cc(C(=O)N2CCN(c3cnc(N)cc3OC)C[C@@H]2CO)ncc1-c1ccccc1 [Compound 96, [(R)-4-(6-Amino-4-methoxy-pyridin-3-yl)-2-hydroxymethyl-piperazin-1-yl]-(4-methoxy-5-phenyl-pyridin-2-yl)-methanone] as the compound, how does the IC50 read?
Its IC50 is 0.32 µM.

With COc1cc(C(=O)N2CCC(c3nnc(N)cc3OC)CC2)ncc1-c1ccccc1 [Compound 87, [4-(6-Amino-4-methoxy-pyridazin-3-yl)-piperidin-1-yl]-(4-methoxy-5-phenyl-pyridin-2-yl)-methanone] as the compound, how does the IC50 read?
Its IC50 is 0.54 µM.

For CCc1ccc(-c2ccc(C(=O)N3CCC(c4ccc(N)nn4)CC3)cc2)cc1 [Compound 2, [4-(6-Amino-pyridazin-3-yl)-piperidin-1-yl]-(4′-ethyl-biphenyl-4-yl)-methanone], which IC50 is on record?
The IC50 was 2 µM.

Which IC50 does the source give for COc1cc(C(=O)N2CCN(c3cnc(N)cc3OC)CC2CC(F)F)ncc1-c1ccc(C(F)(F)F)cc1 (single isomer, unassigned) [Compound 109] here?
Its IC50 is 0.33 µM.

Which IC50 does the source give for COc1cc(C(=O)N2CCC(c3ccc(N)nn3)CC2)ncc1-c1cnc(OCC(F)(F)F)nc1 [Compound 54] here?
Its IC50 is 0.83 µM.

With COc1cc(C(=O)N2CCN(c3cnc(N)cc3OC)CC2CC(F)F)ncc1-c1ccc(C(F)(F)F)cc1 (stereo not shown) [Compound 108, [4-(6-Amino-4-methoxy-pyridin-3-yl)-2-(2,2-difluoro-ethyl)-piperazin-1-yl]-[4-methoxy-5-(4-trifluoromethyl-phenyl)-pyridin-2-yl]-methanone] as the compound, how does the IC50 read?
Its IC50 is 0.7 µM.
